Kd data for 1 compound are collected here from paper PMC12195231, “Afil, a Lectin from Aplysina fistularis, Exhibits Antibiofilm and Synergistic Antibacterial Activity Against Resistant Bacteria” (Microorganisms, 2025).

The assay addresses T1, AfiL.
T1 construct: native, purified from sponge tissue (ammonium sulfate, Sepharose 4B, lactose elution); 70 kDa disulfide-linked dimer, ~30 kDa subunits; internal stretch […]
Description: isothermal titration calorimetry. The format is binding, Aplysina fistularis. Conditions: TBS (20 mM Tris-HCl pH 7.6, 150 mM NaCl), 25 °C; one-set-of-sites model.

For orientation: pKd means −log10 of the Kd, conventionally taken in molar units. A lower pKd goes with a high Kd.

Structures are written as SMILES. pKd: −log10 of the molar value.

With `OC[C@H]1O[C@@H](O[C@H]2[C@H](O)[C@@H](O)C(O)O[C@@H]2CO)[C@H](O)[C@@H](O)[C@H]1O` (stereo partly drawn) [D-lactose], the pKd was 4.99.
